In ChEMBL document CHEMBL1152082, “Topographical requirements for delta opioid ligands: The synthesis and biological properties of a cyclic analogue of deltorphin I” (Bioorg Med Chem Lett, 1992):
Bridge positions count the residues as written; N and C are the ends. Square brackets hold non-standard residues; d marks the D form. Peptide text beside a SMILES is read from it.

Columns and labels:
[1] = biological target: Delta-type opioid receptor (Rattus norvegicus, UniProt P33533); assay: Binding affinity against delta receptor with [3H][p-Cl-Phe4]-DPDPE
[2] = biological target: Mu-type opioid receptor (Rattus norvegicus, UniProt P33535); assay: Binding affinity against Opioid receptor mu 1 with [3H]CTOP
[3] = biological target: Mu-type opioid receptor (Cavia porcellus, UniProt P97266); assay: Inhibitory activity against Guinea pig ileum smooth muscle; format: functional, tissue-based
[4] = biological target: Delta-type opioid receptor (Mus musculus, UniProt P32300); assay: Inhibitory activity against Mouse vas deferens smooth muscle; format: functional, tissue-based, Muscle tissue
Sequence of Delta-type opioid receptor (Mus musculus, UniProt P32300) (P32300 whole entry): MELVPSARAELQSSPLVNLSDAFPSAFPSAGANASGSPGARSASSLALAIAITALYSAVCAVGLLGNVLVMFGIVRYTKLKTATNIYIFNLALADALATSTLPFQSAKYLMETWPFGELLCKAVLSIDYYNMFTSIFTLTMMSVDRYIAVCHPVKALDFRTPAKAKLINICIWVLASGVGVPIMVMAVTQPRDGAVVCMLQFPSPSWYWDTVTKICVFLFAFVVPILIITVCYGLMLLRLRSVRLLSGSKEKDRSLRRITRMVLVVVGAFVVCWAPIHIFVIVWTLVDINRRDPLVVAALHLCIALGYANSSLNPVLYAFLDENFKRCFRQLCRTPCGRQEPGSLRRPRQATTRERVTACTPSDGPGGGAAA

Sequence of Mu-type opioid receptor (Rattus norvegicus, UniProt P33535) (P33535 whole entry): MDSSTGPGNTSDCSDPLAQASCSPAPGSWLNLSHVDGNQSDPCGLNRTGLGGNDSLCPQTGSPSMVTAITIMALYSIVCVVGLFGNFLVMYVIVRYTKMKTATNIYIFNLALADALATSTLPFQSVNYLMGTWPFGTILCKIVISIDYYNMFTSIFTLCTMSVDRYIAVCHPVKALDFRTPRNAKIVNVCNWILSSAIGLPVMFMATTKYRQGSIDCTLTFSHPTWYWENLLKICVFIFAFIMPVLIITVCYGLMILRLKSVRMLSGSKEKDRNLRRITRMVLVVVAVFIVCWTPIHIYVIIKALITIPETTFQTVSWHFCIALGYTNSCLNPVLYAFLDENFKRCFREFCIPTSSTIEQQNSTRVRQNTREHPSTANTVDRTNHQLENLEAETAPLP
Sequence of Delta-type opioid receptor (Rattus norvegicus, UniProt P33533) (P33533 whole entry): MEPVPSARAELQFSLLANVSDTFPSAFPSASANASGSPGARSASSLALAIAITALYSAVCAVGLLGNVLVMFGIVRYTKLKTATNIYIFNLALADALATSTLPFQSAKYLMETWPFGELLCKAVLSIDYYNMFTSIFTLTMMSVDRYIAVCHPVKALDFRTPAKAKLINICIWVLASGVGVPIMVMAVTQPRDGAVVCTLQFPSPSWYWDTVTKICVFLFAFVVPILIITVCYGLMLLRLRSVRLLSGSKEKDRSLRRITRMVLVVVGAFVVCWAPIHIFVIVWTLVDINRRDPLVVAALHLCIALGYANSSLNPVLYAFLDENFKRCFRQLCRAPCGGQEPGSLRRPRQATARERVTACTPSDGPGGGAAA
Sequence of Mu-type opioid receptor (Cavia porcellus, UniProt P97266) (P97266 whole entry): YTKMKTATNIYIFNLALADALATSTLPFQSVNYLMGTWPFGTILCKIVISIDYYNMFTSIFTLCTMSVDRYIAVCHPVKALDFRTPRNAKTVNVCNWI

SMILES | IC50 [1] | IC50 [2] | IC50 [3] | IC50 [4]
CC(NC(=O)[C@@H](N)Cc1ccc(O)cc1)C(=O)N[C@@H](Cc1ccccc1)C(=O)N[C@@H](CC(=O)O)C(=O)N[C@H](C(=O)N[C@H](C(=O)NCC(N)=O)C(C)C)C(C)C (single isomer, unassigned) [DELTORPHIN C] | 0.6 nM | 2140 nM | 2.89 nM | –
CC(C)[C@H](NC(=O)[C@@H]1CSSC[C@@H](NC(=O)[C@@H](N)Cc2ccc(O)cc2)C(=O)N[C@@H](Cc2ccccc2)C(=O)N[C@@H](CC(=O)O)C(=O)N1)C(=O)NCC(N)=O (H-Y[dC]FDCVG-NH2; disulfide 2-5) | 0.87 nM | 5.15 nM | 2.98 nM | 0.23 nM
